Experimental data: BindingDB's records for patent US12473289 (Amgen, 2025)

Target: Acyl-CoA (8-3)-desaturase (Homo sapiens, UniProt O60427)
Experiment: Inhibitory Activity using DGLA-CoA and Arachidonyl-CoA Mass Spectrometric Assays
Protocol: Membrane preparations of D5D-overexpressing HEK293 6E cells were prepared in which the total protein concentration was 5.6 mg/mL.

Acyl-CoA (8-3)-desaturase, sequence (O60427 whole entry): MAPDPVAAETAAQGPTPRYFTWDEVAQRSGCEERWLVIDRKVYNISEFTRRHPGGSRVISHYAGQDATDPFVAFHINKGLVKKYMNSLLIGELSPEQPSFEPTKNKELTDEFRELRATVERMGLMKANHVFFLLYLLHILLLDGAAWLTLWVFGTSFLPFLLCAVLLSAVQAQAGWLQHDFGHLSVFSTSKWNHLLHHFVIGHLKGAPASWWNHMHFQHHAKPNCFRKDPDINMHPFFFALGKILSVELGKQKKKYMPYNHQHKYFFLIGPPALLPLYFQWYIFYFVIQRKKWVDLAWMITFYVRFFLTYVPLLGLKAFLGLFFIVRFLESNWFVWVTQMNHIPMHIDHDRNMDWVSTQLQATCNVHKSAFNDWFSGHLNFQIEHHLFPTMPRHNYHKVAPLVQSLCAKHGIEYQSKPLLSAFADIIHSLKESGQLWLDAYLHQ

## COC1=CC2NC(C(F)(F)F)=C(C3C=NC(OCC(F)(F)F)=NC3)C(=O)N2C=C1 (stereo unspecified) [US12473289, Example 37]
  IC50: 87.6 nM

## COc1ccn2c(=O)c(-c3ccc(OCC(F)(F)F)nc3)c(C(F)(F)F)nc2n1 [US12473289, Example 1-70]
  IC50: 262 nM

## O=c1ccn2c(=O)c(-c3cnn(CC(F)(F)C(F)(F)F)c3)c(C(F)(F)F)[nH]c2c1 [US12473289, Example 18]
  IC50: 132 nM

## COC(=O)c1ccn2c(=O)c(-c3ccc(OCC(F)(F)F)cc3)c(C(F)(F)F)nc2c1 [US12473289, Example 1-36]
  IC50: 199 nM

## O=c1c(-c2cnn(CCC(F)(F)F)c2)c(C(F)(F)F)nc2cc(OCF)ccn12 [US12473289, Example 17-3]
  IC50: 29.6 nM

## O=C1C(C2C=NN(CC(F)(F)C(F)(F)F)C2)=C(C(F)(F)F)NC2C=C(OCF)C=NN12 (stereo unspecified) [US12473289, Example 47]
  IC50: 33.5 nM

## O=C1C(C2C=NN(CC(F)(F)C(F)(F)F)C2)=C(C(F)(F)F)NC2C=C(OCF)C=CN12 (stereo unspecified) [US12473289, Example 45]
  IC50: 10.1 nM

## COc1ccn2c(=O)c(-c3cnn(-c4cccc(C(F)(F)F)c4)c3)c(C(F)(F)F)nc2c1 [US12473289, Example 1-19]
  IC50: 345 nM

## O=C1C(C2C=NN(CC(F)(F)C(F)(F)F)C2)=C(C(F)(F)F)NC2C=C(OCCl)C=CN12 (stereo unspecified) [US12473289, Example 46]
  IC50: 16.6 nM

## O=c1c(-c2ccc(OCC(F)(F)F)cc2)c(C(F)(F)F)nc2cc(C(F)F)ccn12 [US12473289, Example 32]
  IC50: 141 nM

## Nc1ccn2c(=O)c(-c3ccc(OCC(F)(F)F)cc3)c(C(F)(F)F)nc2c1 [US12473289, Example 6-2]
  IC50: 6.8 nM

## O=C1C(C2C=NN(CC(F)(F)C(F)(F)F)C2)=C(C(F)(F)F)NC2C=C(OCCl)C=NN12 (stereo unspecified) [US12473289, Example 48]
  IC50: 119 nM

## COc1ccn2c(=O)c(-c3ccc(OC(F)(F)F)cc3F)c(C(F)(F)F)nc2c1 [US12473289, Example 1-9]
  IC50: 5.9 nM

## CSc1ccn2c(=O)c(-c3ccc(OCC(F)(F)F)cc3)c(C(F)(F)F)nc2c1 [US12473289, Example 1-35]
  IC50: 10.4 nM

## COc1cc2nc(C(F)(F)F)c(-c3cnn(C[C@@H]4CC4(F)F)c3)c(=O)n2cc1F [US12473289, Example 72]
  IC50: 54.9 nM

## COc1ccn2c(=O)c(-c3ccc(OCC4CC4)cc3)c(C(F)(F)F)nc2n1 [US12473289, Example 1-37]
  IC50: 13.1 nM
